Laboratory results published in the CheMixHub ionic liquid set.
± gives the uncertainty stated by the source.

Test: xn = mol fraction of the nth substance listed
Conditions: 308.15 K, 101 kPa

CCCCCCCCCCCCCCCC[n+]1ccccc1.[Cl-] + NCC(=O)O + O
Conditions | electrical conductivity [S/m]
x2 = 0, x1 = 5.4e-07 | 0.000222 ± 2e-06
x2 = 0, x1 = 9e-07 | 0.00029 ± 3e-06
x2 = 0, x1 = 1.62e-06 | 0.0004 ± 4e-06
x2 = 0, x1 = 2.34e-06 | 0.000465 ± 5e-06
x2 = 0, x1 = 2.88e-06 | 0.000581 ± 6e-06
x2 = 0, x1 = 3.78e-06 | 0.000705 ± 7e-06
x2 = 0, x1 = 4.5e-06 | 0.000794 ± 8e-06
x2 = 0, x1 = 5.59e-06 | 0.000937 ± 9e-06
x2 = 0, x1 = 6.85e-06 | 0.00106 ± 1.1e-05
x2 = 0, x1 = 7.93e-06 | 0.001222 ± 1.2e-05
x2 = 0, x1 = 9.01e-06 | 0.001438 ± 1.4e-05
x2 = 0, x1 = 1.009e-05 | 0.00159 ± 1.6e-05
x2 = 0, x1 = 1.117e-05 | 0.001701 ± 1.7e-05
x2 = 0, x1 = 1.442e-05 | 0.00209 ± 2.1e-05
x2 = 0, x1 = 1.55e-05 | 0.00219 ± 2.2e-05
x2 = 0, x1 = 1.766e-05 | 0.00237 ± 2.4e-05
x2 = 0, x1 = 1.982e-05 | 0.00248 ± 2.5e-05
x2 = 0, x1 = 2.18e-05 | 0.00259 ± 2.6e-05
x2 = 0, x1 = 2.397e-05 | 0.00264 ± 2.6e-05
x2 = 0, x1 = 2.595e-05 | 0.00278 ± 2.8e-05
x2 = 0, x1 = 2.991e-05 | 0.00297 ± 3e-05
x2 = 0, x1 = 3.406e-05 | 0.00314 ± 3.1e-05
x2 = 0, x1 = 3.784e-05 | 0.00328 ± 3.3e-05
x2 = 0, x1 = 4.162e-05 | 0.00342 ± 3.4e-05
x2 = 0, x1 = 4.541e-05 | 0.00356 ± 3.6e-05
x2 = 0, x1 = 4.919e-05 | 0.00369 ± 3.7e-05
x2 = 0, x1 = 5.099e-05 | 0.00375 ± 3.8e-05
x2 = 0, x1 = 5.982e-05 | 0.00403 ± 4e-05
x2 = 0, x1 = 6.829e-05 | 0.00432 ± 4.3e-05
x2 = 0, x1 = 7.64e-05 | 0.00454 ± 4.5e-05
x2 = 0, x1 = 8.415e-05 | 0.00477 ± 4.8e-05
x2 = 0, x1 = 9.171e-05 | 0.00497 ± 5e-05
x2 = 0, x1 = 9.892e-05 | 0.00516 ± 5.2e-05
x2 = 0, x1 = 0.0001058 | 0.00533 ± 5.3e-05
x2 = 0, x1 = 0.0001124 | 0.0055 ± 5.5e-05
x2 = 0, x1 = 0.0001189 | 0.00565 ± 5.7e-05
x2 = 2.018e-05, x1 = 5.4e-07 | 0.0001 ± 1e-06
x2 = 2.018e-05, x1 = 9e-07 | 0.000245 ± 3e-06
x2 = 2.018e-05, x1 = 1.62e-06 | 0.000348 ± 4e-06
x2 = 2.018e-05, x1 = 2.34e-06 | 0.000456 ± 5e-06
x2 = 2.018e-05, x1 = 2.88e-06 | 0.000621 ± 6e-06
x2 = 2.018e-05, x1 = 3.78e-06 | 0.000716 ± 7e-06
x2 = 2.018e-05, x1 = 4.51e-06 | 0.000822 ± 8e-06
x2 = 2.018e-05, x1 = 5.59e-06 | 0.000964 ± 1e-05
x2 = 2.018e-05, x1 = 6.85e-06 | 0.00108 ± 1.1e-05
x2 = 2.018e-05, x1 = 7.93e-06 | 0.001203 ± 1.2e-05
x2 = 2.018e-05, x1 = 9.01e-06 | 0.001314 ± 1.3e-05
x2 = 2.018e-05, x1 = 1.009e-05 | 0.001427 ± 1.4e-05
x2 = 2.018e-05, x1 = 1.117e-05 | 0.001546 ± 1.5e-05
x2 = 2.018e-05, x1 = 1.334e-05 | 0.001813 ± 1.8e-05
x2 = 2.018e-05, x1 = 1.55e-05 | 0.00205 ± 2.1e-05
x2 = 2.018e-05, x1 = 1.766e-05 | 0.00226 ± 2.3e-05
x2 = 2.018e-05, x1 = 1.982e-05 | 0.0024 ± 2.4e-05
x2 = 2.018e-05, x1 = 2.181e-05 | 0.00252 ± 2.5e-05
x2 = 2.018e-05, x1 = 2.397e-05 | 0.00262 ± 2.6e-05
x2 = 2.018e-05, x1 = 2.595e-05 | 0.0027 ± 2.7e-05
x2 = 2.018e-05, x1 = 3.009e-05 | 0.00285 ± 2.9e-05
x2 = 2.018e-05, x1 = 3.406e-05 | 0.00306 ± 3.1e-05
x2 = 2.018e-05, x1 = 3.802e-05 | 0.00323 ± 3.2e-05
x2 = 2.018e-05, x1 = 4.181e-05 | 0.00336 ± 3.4e-05
x2 = 2.018e-05, x1 = 4.559e-05 | 0.0035 ± 3.5e-05
x2 = 2.018e-05, x1 = 4.92e-05 | 0.00362 ± 3.6e-05
x2 = 2.018e-05, x1 = 5.1e-05 | 0.00368 ± 3.7e-05
x2 = 2.018e-05, x1 = 6.001e-05 | 0.00392 ± 3.9e-05
x2 = 2.018e-05, x1 = 6.848e-05 | 0.00422 ± 4.2e-05
x2 = 2.018e-05, x1 = 7.658e-05 | 0.00445 ± 4.5e-05
x2 = 2.018e-05, x1 = 8.433e-05 | 0.00467 ± 4.7e-05
x2 = 2.018e-05, x1 = 9.19e-05 | 0.00486 ± 4.9e-05
x2 = 2.018e-05, x1 = 9.911e-05 | 0.00506 ± 5.1e-05
x2 = 2.018e-05, x1 = 0.000106 | 0.00523 ± 5.2e-05
x2 = 2.018e-05, x1 = 0.0001126 | 0.00538 ± 5.4e-05
x2 = 2.018e-05, x1 = 0.0001191 | 0.00553 ± 5.5e-05
x2 = 0.0002, x1 = 5.4e-07 | 0.000232 ± 2e-06
x2 = 0.0002, x1 = 9e-07 | 0.000298 ± 3e-06
x2 = 0.0002, x1 = 1.62e-06 | 0.00042 ± 4e-06
x2 = 0.0002, x1 = 2.16e-06 | 0.000524 ± 5e-06
x2 = 0.0002, x1 = 2.89e-06 | 0.000628 ± 6e-06
x2 = 0.0002, x1 = 3.79e-06 | 0.000685 ± 7e-06
x2 = 0.0002, x1 = 4.51e-06 | 0.000861 ± 9e-06
x2 = 0.0002, x1 = 5.59e-06 | 0.001036 ± 1e-05
x2 = 0.0002, x1 = 6.67e-06 | 0.00115 ± 1.2e-05
x2 = 0.0002, x1 = 7.75e-06 | 0.00127 ± 1.3e-05
x2 = 0.0002, x1 = 8.84e-06 | 0.001426 ± 1.4e-05
x2 = 0.0002, x1 = 9.92e-06 | 0.00157 ± 1.6e-05
x2 = 0.0002, x1 = 1.1e-05 | 0.00168 ± 1.7e-05
x2 = 0.0002, x1 = 1.316e-05 | 0.001913 ± 1.9e-05
x2 = 0.0002, x1 = 1.533e-05 | 0.00214 ± 2.1e-05
x2 = 0.0002, x1 = 1.731e-05 | 0.00228 ± 2.3e-05
x2 = 0.0002, x1 = 1.947e-05 | 0.00243 ± 2.4e-05
x2 = 0.0002, x1 = 2.146e-05 | 0.00253 ± 2.5e-05
x2 = 0.0002, x1 = 2.344e-05 | 0.00262 ± 2.6e-05
x2 = 0.0002, x1 = 2.56e-05 | 0.00272 ± 2.7e-05
x2 = 0.0002, x1 = 2.957e-05 | 0.00291 ± 2.9e-05
x2 = 0.0002, x1 = 3.336e-05 | 0.00307 ± 3.1e-05
x2 = 0.0002, x1 = 3.732e-05 | 0.00323 ± 3.2e-05
x2 = 0.0002, x1 = 4.111e-05 | 0.00337 ± 3.4e-05
x2 = 0.0002, x1 = 4.472e-05 | 0.0035 ± 3.5e-05
x2 = 0.0002, x1 = 4.832e-05 | 0.00363 ± 3.6e-05
x2 = 0.0002, x1 = 5.012e-05 | 0.0037 ± 3.7e-05
x2 = 0.0002, x1 = 5.878e-05 | 0.00399 ± 4e-05
